Values quoted from earlier work as cited in patent publication US5574025A, “Inhibitors of prenyl-protein transferases” (Merck & Co., Inc., priority 1994, dated 1996).

Test system: Ras
Details: Hancock et al., Casey et al., Schafer et al.

SMILES | Inhibition of Ras famesylation in vivo
CC[C@H](C)C(=O)O[C@H]1CCC=C2C=C[C@H](C)[C@H](CC[C@@H]3C[C@@H](O)CC(=O)O3)[C@H]21 [compactin] | Inhibition of Ras famesylation in vivo has been demonstrated
CC[C@H](C)C(=O)O[C@H]1C[C@@H](C)C=C2C=C[C@H](C)[C@H](CC[C@@H]3C[C@@H](O)CC(=O)O3)[C@H]21 [Lovastatin] | Inhibition of Ras famesylation in vivo has been demonstrated
